From patent US6689798B2, “Benzofuran derivatives” (Daiichi Pharmaceutical Co., Ltd., priority 2000, dated 2004)
Structures can show the parent of a compound that is named as a salt.

Biological target: T1, steroid 17α-hydroxylase and/or steroid C17-20 lyase (Rattus norvegicus, UniProt P11715)
T1 construct: the testis of rats (SD, male) was homogenized and centrifuged to obtain microsome; from tissue; host or cells: rat (SD, male) testis microsomes
T1 sequence (P11715 1-507): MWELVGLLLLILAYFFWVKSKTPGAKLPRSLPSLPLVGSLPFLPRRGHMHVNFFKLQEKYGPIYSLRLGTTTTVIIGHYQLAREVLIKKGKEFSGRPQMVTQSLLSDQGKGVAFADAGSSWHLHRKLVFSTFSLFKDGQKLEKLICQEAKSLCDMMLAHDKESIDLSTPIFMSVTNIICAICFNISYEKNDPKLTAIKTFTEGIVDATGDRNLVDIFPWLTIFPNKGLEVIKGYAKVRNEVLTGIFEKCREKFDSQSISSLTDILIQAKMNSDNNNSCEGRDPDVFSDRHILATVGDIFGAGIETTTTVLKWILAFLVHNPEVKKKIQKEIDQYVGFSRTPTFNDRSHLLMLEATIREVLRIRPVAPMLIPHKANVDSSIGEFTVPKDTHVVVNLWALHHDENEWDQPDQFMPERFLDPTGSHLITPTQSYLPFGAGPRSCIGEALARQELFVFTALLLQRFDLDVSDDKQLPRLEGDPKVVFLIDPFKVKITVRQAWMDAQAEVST
Test: Measurement of steroid 17α-hydroxylase and/or steroid C17-20 lyase inhibitory activity (rat testis microsome)
Type: biochemical
Settings: test compound 300 nM, substrate 25 μM 17α-hydroxyprogesterone, NADPH 500 μM
Method: An experiment was carried out according to the method of T. Sergejew and R. W.
Hartmann (J. Enzyme Inhibition, 8, 113 (1994)). That is, the testis of rats (SD, male) was homogenized and centrifuged to obtain microsome. Each compound of the present invention prepared in Examples 1-13 was put into a micro tube (1.5 ml, Eppendorf Co.). After the addition of 100 μl of microsome protein solution, the concentration of which was adjusted to 0.1 mg/ml using 50 mM phosphate buffer solution (pH 7.4), 140 μl of 125 nmol NADPH solution, and 10 μl of 6.25 nmol 17α-hydroxyprogesterone, the mixture was incubated at 37° C. for 20 minutes. 50 μl of 1N hydrochloric acid and 1000 μl of ethyl acetate were sequentially added to the mixture. The mixture was shaken and centrifuged. The ethyl acetate layer was then washed with 250 μl of 50 mM phosphate buffer solution (pH 7.4) and 50 μl of IN hydrochloric acid, centrifuged, and concentrated. The concentrate was dissolved in 100 μl of acetonitrile. 10 μl of this solution was charged to high performance liquid chromatography. The amounts of the substrate and the formed product (androstenedione and testosterone) were measured to determine the enzyme activity. A sample without the test compound added was provided as a control. Steroid 17α-hydroxylase and/or steroid C17-20 lyase inhibitory activity (%) was calculated from the amounts of each substrate and product using the following equation (1). [formula]

| SMILES | inhibition at 0.3 µM [%] |
| --- | --- |
| c1cncc(-c2coc3cc(-c4ccsc4)ccc23)c1 [Example 13, 3-[6-(3-thienyl)benzo[b]furan-3-yl]pyridine hydrochloride] | 89 |
| c1cncc(-c2ccc3c(-c4cccnc4)coc3c2)c1 [Example 7, 3-[6-(3-pyridyl)benzo[b]furan-3-yl]pyridine] | 75 |
| c1ccc(-c2ccc3c(-c4cccnc4)coc3c2)cc1 [Example 9, 3-(6-phenylbenzo[b]furan-3-yl)pyridine] | 45 |
| Fc1cccc(-c2ccc3c(-c4cccnc4)coc3c2)c1 [Example 4, 3-[6-(3-fluorophenyl)benzo[b]furan-3-yl] Pyridine] | 45 |
| Oc1ccc(-c2ccc3c(-c4cccnc4)coc3c2)cc1O [Example 12, 4-[3-(3-pyridyl)benzo[b]furan-6-yl]-1,2-benzenediol hydrobromide] | 66 |
| Fc1ccc(-c2ccc3c(-c4cccnc4)coc3c2)cc1 [Example 3, 3-[6-(4-fluorophenyl)benzo[b]furan-3-yl] Pyridine] | 64 |
| Oc1cccc(-c2ccc3c(-c4cccnc4)coc3c2)c1 [Example 11, 3-[3-(3-pyridyl)benzo[b]furan-6-yl]phenol] | 81 |
| Nc1cccc(-c2ccc3c(-c4cccnc4)coc3c2)c1 [Example 6, 3-[3-(3-pyridyl)benzo[b]furan-6-yl]phenylamine] | 90 |

System: not given
Test: not given
Settings: not given

| SMILES | melting point [°C] |
| --- | --- |
| c1cncc(-c2ccc3c(-c4cccnc4)coc3c2)c1 [Example 7, 3-[6-(3-pyridyl)benzo[b]furan-3-yl]pyridine] | 140.5 to 141.5 |
